The term MIC denotes the lowest concentration found to suppress growth. Lower therefore signals inhibition by little substance.

Each structure is given as a SMILES string. Converted amounts (≈) assume the structure as drawn. A value given as a limit tells only on which side of the number the result lay.

For one data set, the system named is Mycobacterium tuberculosis. As to the kind of experiment: Antimycobacterial activity against INH, RIF, rifabutin, streptomycin-resistant Mycobacterium tuberculosis 9449/2006 after 14 days by microdilution method. Conditions: 9449/2006, 336 h. Type of data set: functional. A general note: Broth dilution looks for growth in wells or tubes with falling amounts of substance.
Turning to `O=C(Oc1ccc(Cl)cc1C(=O)Nc1ccc(Cl)c(Cl)c1)c1ccccc1`, 0.5 µM (≈ 0.21 µg/mL) was the least that counted as inhibitory (MIC).

The molecule `Cc1ccc(C(=O)Oc2ccc(Cl)cc2C(=O)Nc2ccc(Cl)c(Cl)c2)cc1` gave an MIC of 1 µM (≈ 0.435 µg/mL). This MIC is about 2-fold higher than that of the molecule before.

`O=C(Oc1ccc(Cl)cc1C(=O)Nc1ccc(Cl)c(Cl)c1)c1ccc(C(F)(F)F)cc1` registered an MIC of 2 µM (≈ 0.977 µg/mL).

As to `O=C(Oc1ccc(Cl)cc1C(=O)Nc1ccc(Cl)c(Cl)c1)c1ccc(Br)cc1`, the MIC amounted to 0.25 µM (≈ 0.125 µg/mL).

The next data set deals with Mycobacterium tuberculosis. As to the kind of experiment: Antimycobacterial activity against INH, RIF, rifabutin, streptomycin, ethambutol, ofloxacin, gentamicin, amikacin-resistant Mycobacterium tuberculosis Praha 131 after 21 days by microdilution method. Conditions: Praha 131, 504 h. Type of data set: functional.
On to `O=C(Oc1ccc(Cl)cc1C(=O)Nc1ccc(Cl)c(Cl)c1)c1ccccc1`, for which the MIC stood at 1 µM (≈ 0.421 µg/mL).

Molecule `Cc1ccc(C(=O)Oc2ccc(Cl)cc2C(=O)Nc2ccc(Cl)c(Cl)c2)cc1` had an MIC of 1 µM (≈ 0.435 µg/mL).

`O=C(Oc1ccc(Cl)cc1C(=O)Nc1ccc(Cl)c(Cl)c1)c1ccc(C(F)(F)F)cc1`: inhibition of growth (MIC) required 2 µM (≈ 0.977 µg/mL).

`O=C(Oc1ccc(Cl)cc1C(=O)Nc1ccc(Cl)c(Cl)c1)c1ccc(Br)cc1` returned a minimal inhibitory concentration (MIC) of 0.25 µM (≈ 0.125 µg/mL).

A further data set concerns Mycobacterium tuberculosis. As to the kind of experiment: Antimycobacterial activity against INH, RIF, rifabutin, streptomycin, ethambutol, ofloxacin-resistant Mycobacterium tuberculosis 234/2005 after 21 days by microdilution method. It is filed as functional. As to conditions: 234/2005, 504 h.
For the molecule `O=C(Oc1ccc(Cl)cc1C(=O)Nc1ccc(Cl)c(Cl)c1)c1ccccc1`, the MIC was found to be 0.5 µM (≈ 0.21 µg/mL).

As to `Cc1ccc(C(=O)Oc2ccc(Cl)cc2C(=O)Nc2ccc(Cl)c(Cl)c2)cc1`, the minimum inhibitory concentration (MIC) was 2 µM (≈ 0.869 µg/mL).

`O=C(Oc1ccc(Cl)cc1C(=O)Nc1ccc(Cl)c(Cl)c1)c1ccc(C(F)(F)F)cc1`: the minimal inhibitory concentration (MIC) was found to be 2 µM (≈ 0.977 µg/mL).

System in another data set: not listed separately
As to the kind of experiment: Selectivity index, ratio of IC50 for human HepG2 cells to MIC for multidrug-resistant Mycobacterium tuberculosis. Type of data set: toxicity, cell-based. Conditions: read-out: Selectivity Index.
On to `Cc1ccc(C(=O)Oc2ccc(Cl)cc2C(=O)Nc2ccc(Cl)c(Cl)c2)cc1`, for which the selectivity ratio is > 25.

`O=C(Oc1ccc(Cl)cc1C(=O)Nc1ccc(Cl)c(Cl)c1)c1ccc(Br)cc1`: the selectivity ratio is > 100.

The test system of the next data set is Mycobacterium tuberculosis. The experiment in a line: Antimycobacterial activity against INH, RIF, rifabutin, streptomycin, ethambutol, ofloxacin, clofazimine-resistant Mycobacterium tuberculosis Praha 4 after 21 days by microdilution method. It is filed as functional. As to conditions: Praha 4, 504 h.
In turn, `Cc1ccc(C(=O)Oc2ccc(Cl)cc2C(=O)Nc2ccc(Cl)c(Cl)c2)cc1` returned an MIC of 1 µM (≈ 0.435 µg/mL).

Molecule `O=C(Oc1ccc(Cl)cc1C(=O)Nc1ccc(Cl)c(Cl)c1)c1ccc(Br)cc1` had an MIC of 0.5 µM (≈ 0.25 µg/mL).

For the next data set, the system named is Mycobacterium tuberculosis. The experiment in a line: Antimycobacterial activity against INH, RIF, rifabutin, streptomycin, ethambutol, clofazimine-resistant Mycobacterium tuberculosis Praha 1 after 21 days by microdilution method. As to conditions: Praha 1, 504 h. Type of data set: functional.
Consider `O=C(Oc1ccc(Cl)cc1C(=O)Nc1ccc(Cl)c(Cl)c1)c1ccccc1`, for which inhibition of growth (MIC) required 0.5 µM (≈ 0.21 µg/mL).

The molecule `Cc1ccc(C(=O)Oc2ccc(Cl)cc2C(=O)Nc2ccc(Cl)c(Cl)c2)cc1` displayed a minimal inhibitory concentration (MIC) of 1 µM (≈ 0.435 µg/mL). Compared with the last molecule, the MIC is about 2-fold higher.

In turn, `O=C(Oc1ccc(Cl)cc1C(=O)Nc1ccc(Cl)c(Cl)c1)c1ccc(C(F)(F)F)cc1` displayed an MIC of 2 µM (≈ 0.977 µg/mL).

A further data set has as its system Mycobacterium tuberculosis. The experiment in a line: Antimycobacterial activity against INH, RIF, rifabutin, streptomycin, ethambutol, ofloxacin-resistant Mycobacterium tuberculosis 7357/1998 after 21 days by microdilution method. Type of data set: functional. As to conditions: 7357/1998, 504 h.
In turn, `O=C(Oc1ccc(Cl)cc1C(=O)Nc1ccc(Cl)c(Cl)c1)c1ccccc1` showed an MIC of 0.5 µM (≈ 0.21 µg/mL).

With `Cc1ccc(C(=O)Oc2ccc(Cl)cc2C(=O)Nc2ccc(Cl)c(Cl)c2)cc1`, the MIC was 1 µM (≈ 0.435 µg/mL). Compared with the last molecule, the MIC is about 2-fold higher.

The molecule `O=C(Oc1ccc(Cl)cc1C(=O)Nc1ccc(Cl)c(Cl)c1)c1ccc(C(F)(F)F)cc1` came in with an MIC of 2 µM (≈ 0.977 µg/mL).

`O=C(Oc1ccc(Cl)cc1C(=O)Nc1ccc(Cl)c(Cl)c1)c1ccc(Br)cc1` returned an MIC of 0.125 µM (≈ 0.0624 µg/mL). This MIC is about 16-fold lower than that of the molecule before.

Another data set has as its system Mycobacterium tuberculosis. The experiment in a line: Antimycobacterial activity against INH, RIF, rifabutin, streptomycin-resistant Mycobacterium tuberculosis 9449/2006 after 21 days by microdilution method. Type of data set: functional. Conditions: 9449/2006, 504 h.
On to `O=C(Oc1ccc(Cl)cc1C(=O)Nc1ccc(Cl)c(Cl)c1)c1ccccc1`, for which it took 1 µM (≈ 0.421 µg/mL) to inhibit growth (MIC).

`Cc1ccc(C(=O)Oc2ccc(Cl)cc2C(=O)Nc2ccc(Cl)c(Cl)c2)cc1` registered a minimum inhibitory concentration (MIC) of 1 µM (≈ 0.435 µg/mL).

As for `O=C(Oc1ccc(Cl)cc1C(=O)Nc1ccc(Cl)c(Cl)c1)c1ccc(C(F)(F)F)cc1`, the MIC was 2 µM (≈ 0.977 µg/mL).

For the molecule `O=C(Oc1ccc(Cl)cc1C(=O)Nc1ccc(Cl)c(Cl)c1)c1ccc(Br)cc1`, the MIC amounted to 0.5 µM (≈ 0.25 µg/mL). Against the preceding molecule, the MIC is about 4-fold lower.

The next data set deals with Mycobacterium tuberculosis. As to the kind of experiment: Antimycobacterial activity against INH, RIF, rifabutin, streptomycin, ethambutol, ofloxacin, clofazimine-resistant Mycobacterium tuberculosis Praha 4 after 14 days by microdilution method. It is filed as functional. Conditions: Praha 4, 336 h.
Take `Cc1ccc(C(=O)Oc2ccc(Cl)cc2C(=O)Nc2ccc(Cl)c(Cl)c2)cc1`: the MIC was 1 µM (≈ 0.435 µg/mL).

As for `O=C(Oc1ccc(Cl)cc1C(=O)Nc1ccc(Cl)c(Cl)c1)c1ccc(Br)cc1`, the MIC came out at 0.25 µM (≈ 0.125 µg/mL).

In the next data set the test system is Mycobacterium tuberculosis. The experiment in a line: Antimycobacterial activity against INH, RIF, rifabutin, streptomycin, ethambutol, ofloxacin, gentamicin, amikacin-resistant Mycobacterium tuberculosis Praha 131 after 14 days by microdilution method. It is filed as functional. Conditions: Praha 131, 336 h.
On to `O=C(Oc1ccc(Cl)cc1C(=O)Nc1ccc(Cl)c(Cl)c1)c1ccccc1`, for which inhibition of growth (MIC) required 0.5 µM (≈ 0.21 µg/mL).

On to `Cc1ccc(C(=O)Oc2ccc(Cl)cc2C(=O)Nc2ccc(Cl)c(Cl)c2)cc1`, for which the MIC stood at 1 µM (≈ 0.435 µg/mL).

In turn, `O=C(Oc1ccc(Cl)cc1C(=O)Nc1ccc(Cl)c(Cl)c1)c1ccc(C(F)(F)F)cc1` had a minimal inhibitory concentration (MIC) of 2 µM (≈ 0.977 µg/mL).

`O=C(Oc1ccc(Cl)cc1C(=O)Nc1ccc(Cl)c(Cl)c1)c1ccc(Br)cc1`: it took 0.25 µM (≈ 0.125 µg/mL) to inhibit growth (MIC).

The subject of a further data set is Mycobacterium tuberculosis. As to the kind of experiment: Antimycobacterial activity against INH, RIF, rifabutin, streptomycin, ethambutol, ofloxacin-resistant Mycobacterium tuberculosis 234/2005 after 14 days by microdilution method. Type of data set: functional. As to conditions: 234/2005, 336 h.
The molecule `O=C(Oc1ccc(Cl)cc1C(=O)Nc1ccc(Cl)c(Cl)c1)c1ccccc1` showed an MIC of 0.25 µM (≈ 0.105 µg/mL). This lies in the sub-micromolar range.

Take `Cc1ccc(C(=O)Oc2ccc(Cl)cc2C(=O)Nc2ccc(Cl)c(Cl)c2)cc1`: the minimum inhibitory concentration (MIC) turned out to be 2 µM (≈ 0.869 µg/mL).

In the case of `O=C(Oc1ccc(Cl)cc1C(=O)Nc1ccc(Cl)c(Cl)c1)c1ccc(C(F)(F)F)cc1`, the MIC turned out to be 1 µM (≈ 0.489 µg/mL).

The subject of a further data set is Mycobacterium tuberculosis. As to the kind of experiment: Antimycobacterial activity against INH, RIF, rifabutin, streptomycin, ethambutol, clofazimine-resistant Mycobacterium tuberculosis Praha 1 after 14 days by microdilution method. Type of data set: functional. As to conditions: Praha 1, 336 h.
As to `O=C(Oc1ccc(Cl)cc1C(=O)Nc1ccc(Cl)c(Cl)c1)c1ccccc1`, the MIC is 0.5 µM (≈ 0.21 µg/mL).

Take `Cc1ccc(C(=O)Oc2ccc(Cl)cc2C(=O)Nc2ccc(Cl)c(Cl)c2)cc1`: the minimal inhibitory concentration (MIC) stood at 1 µM (≈ 0.435 µg/mL).

Molecule `O=C(Oc1ccc(Cl)cc1C(=O)Nc1ccc(Cl)c(Cl)c1)c1ccc(C(F)(F)F)cc1` came in with an MIC of 1 µM (≈ 0.489 µg/mL).

The subject of the next data set is Mycobacterium tuberculosis. The experiment in a line: Antimycobacterial activity against INH, RIF, rifabutin, streptomycin, ethambutol, ofloxacin-resistant Mycobacterium tuberculosis 7357/1998 after 14 days by microdilution method. It is filed as functional. Conditions: 7357/1998, 336 h.
In turn, `O=C(Oc1ccc(Cl)cc1C(=O)Nc1ccc(Cl)c(Cl)c1)c1ccccc1` registered an MIC of 0.5 µM (≈ 0.21 µg/mL).

`Cc1ccc(C(=O)Oc2ccc(Cl)cc2C(=O)Nc2ccc(Cl)c(Cl)c2)cc1` came in with an MIC of 1 µM (≈ 0.435 µg/mL).

As to `O=C(Oc1ccc(Cl)cc1C(=O)Nc1ccc(Cl)c(Cl)c1)c1ccc(C(F)(F)F)cc1`, the MIC is 1 µM (≈ 0.489 µg/mL).

Turning to `O=C(Oc1ccc(Cl)cc1C(=O)Nc1ccc(Cl)c(Cl)c1)c1ccc(Br)cc1`, it took 0.125 µM (≈ 0.0624 µg/mL) to inhibit growth (MIC). This MIC is about 8-fold lower than that of the molecule before.
